This assay deals with T1, His-hMAGL (recombinant polyhistidine tagged human MAGL protein) (Homo sapiens, UniProt Q99685).
T1 construct: made in house; host or cells: E. coli BL21(DE3)
T1 sequence (Q99685 1-303): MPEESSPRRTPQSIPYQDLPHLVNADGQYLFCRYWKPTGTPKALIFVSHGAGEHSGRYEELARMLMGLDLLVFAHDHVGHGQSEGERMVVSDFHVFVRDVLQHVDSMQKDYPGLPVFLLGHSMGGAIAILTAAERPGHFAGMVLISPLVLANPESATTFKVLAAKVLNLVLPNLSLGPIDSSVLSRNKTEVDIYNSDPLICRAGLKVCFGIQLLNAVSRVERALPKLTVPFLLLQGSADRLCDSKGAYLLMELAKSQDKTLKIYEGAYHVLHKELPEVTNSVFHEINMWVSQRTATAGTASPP
Kind of assay: Measurement of MAGL inhibitory activity (arachidonic acid production from 2-arachidonylglycerol, RapidFire-mass spectrometry). In kind it is biochemical. Conditions: MAGL inhibitory rate at 10 μM test compound; 60 min preincubation with His-hMAGL, 2-arachidonylglycerol substrate, 10 min reaction at room temperature. In short, it runs like this: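 Recombinant His-tagged human MAGL converted 2-arachidonylglycerol to arachidonic acid. Reactions received acetonitrile with 3 μM arachidonic acid-d8 as internal standard, and product was quantified by RapidFire SPE (C4) with negative-mode SRM mass spectrometry. Percent inhibition was calculated against compound-free and enzyme-free controls.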
For `O=C1COc2cc(F)c(C(=O)N3CCC(COc4ccc(F)cc4-c4ccccc4)CC3)cc2N1` [Example 100, 7-fluoro-6-((4-(((5-fluorobiphenyl-2-yl)oxy)methyl)piperidin-1-yl)carbonyl)-2H-1,4-benzoxazin-3(4H)-one], the inhibition at 10 µM turned out to be 98%. Next, `O=C(c1cc2[nH]c(=O)oc2cc1F)N1CCC(COc2ccc(F)cc2Cl)CC1` [Example 101, 5-((4-((2-chloro-4-fluorophenoxy)methyl)piperidin-1-yl)carbonyl)-6-fluoro-1,3-benzoxazol-2(3H)-one]: 99%. Next, `O=C1COc2cc(F)c(C(=O)N3CC(COc4ccc5c(c4)CCCC5)C3)cc2N1` [Example 102, 7-fluoro-6-((3-((5,6,7,8-tetrahydronaphthalen-2-yloxy)methyl)azetidin-1-yl)carbonyl)-2H-1,4-benzoxazin-3(4H)-one]: 102%. Take `CC1(C)Cc2cccc(OCC3CN(C(=O)c4cc5c(cc4F)OCC(=O)N5)C3)c2O1` [Example 103, 6-((3-(((2,2-dimethyl-2,3-dihydro-1-benzofuran-7-yl)oxy)methyl)azetidin-1-yl)carbonyl)-7-fluoro-2H-1,4-benzoxazin-3(4H)-one]: the inhibition at 10 µM was determined as 102%. For `O=C1COc2cc(F)c(C(=O)N3CC(COc4ccc5scnc5c4)C3)cc2N1` [Example 104, 6-((3-((1,3-benzothiazol-5-yloxy)methyl)azetidin-1-yl)carbonyl)-7-fluoro-2H-1,4-benzoxazin-3(4H)-one], the inhibition at 10 µM is 100%. For `O=C1COc2cc(F)c(C(=O)N3CC(COc4cccc5scnc45)C3)cc2N1` [Example 105, 6-((3-((1,3-benzothiazol-4-yloxy)methyl)azetidin-1-yl)carbonyl)-7-fluoro-2H-1,4-benzoxazin-3(4H)-one] the value was 97%; for `O=C1COc2cc(F)c(C(=O)N3CC(COc4cccc5ocnc45)C3)cc2N1` [Example 106, 6-((3-((1,3-benzoxazol-4-yloxy)methyl)azetidin-1-yl)carbonyl)-7-fluoro-2H-1,4-benzoxazin-3(4H)-one], 101%; for `O=C1COc2cc(F)c(C(=O)N3CC(COc4cccc5[nH]ncc45)C3)cc2N1` [Example 107, 7-fluoro-6-((3-((1H-indazol-4-yloxy)methyl)azetidin-1-yl)carbonyl)-2H-1,4-benzoxazin-3(4H)-one], 101%. Regarding `O=C1COc2cc(F)c(C(=O)N3CC(COc4ccc(-c5ccccc5)cc4)C3)cc2N1` [Example 108, 6-((3-((biphenyl-4-yloxy)methyl)azetidin-1-yl)carbonyl)-7-fluoro-2H-1,4-benzoxazin-3(4H)-one], the inhibition at 10 µM amounted to 99%.

For `O=C1COc2cc(F)c(C(=O)N3CC(COc4ccccc4-c4ccccc4)C3)cc2N1` [Example 109, 6-((3-((biphenyl-2-yloxy)methyl)azetidin-1-yl)carbonyl)-7-fluoro-2H-1,4-benzoxazin-3(4H)-one], the inhibition at 10 µM is 103%.

For the compound `O=C1COc2cc(F)c(C(=O)N3CC(COc4cccc(-c5ccccc5)c4)C3)cc2N1` [Example 110, 6-((3-((biphenyl-3-yloxy)methyl)azetidin-1-yl)carbonyl)-7-fluoro-2H-1,4-benzoxazin-3(4H)-one], the inhibition at 10 µM came to 97%. For the compound `O=C1COc2cc(F)c(C(=O)N3CC(COc4ccc(Cl)cc4)C3)cc2N1` [Example 111, 6-((3-((4-chlorophenoxy)methyl)azetidin-1-yl)carbonyl)-7-fluoro-2H-1,4-benzoxazin-3(4H)-one], the inhibition at 10 µM is 98%. Consider `O=C1COc2cc(F)c(C(=O)N3CC(COc4cccc(Cl)c4)C3)cc2N1` [Example 112, 6-((3-((3-chlorophenoxy)methyl)azetidin-1-yl)carbonyl)-7-fluoro-2H-1,4-benzoxazin-3(4H)-one], for which the inhibition at 10 µM is 101%. Next, `O=C1COc2cc(F)c(C(=O)N3CC(COc4ccccc4Cl)C3)cc2N1` [Example 113, 6-((3-((2-chlorophenoxy)methyl)azetidin-1-yl)carbonyl)-7-fluoro-2H-1,4-benzoxazin-3(4H)-one]: 101%; `O=C1COc2cc(F)c(C(=O)N3CC(COc4ccc(OCC(F)(F)F)cc4)C3)cc2N1` [Example 114, 7-fluoro-6-((3-((4-(2,2,2-trifluoroethoxy)phenoxy)methyl)azetidin-1-yl)carbonyl)-2H-1,4-benzoxazin-3(4H)-one]: 99%; `COc1cc(Cl)ccc1OCC1CN(C(=O)c2cc3c(cc2F)OCC(=O)N3)C1` [Example 115, 6-((3-((4-chloro-2-methoxyphenoxy)methyl)azetidin-1-yl)carbonyl)-7-fluoro-2H-1,4-benzoxazin-3(4H)-one]: 103%. As for `O=C1COc2cc(F)c(C(=O)N3CC(COc4ccc(C(F)(F)F)cc4Cl)C3)cc2N1` [Example 116, 6-((3-((2-chloro-4-(trifluoromethyl)phenoxy)methyl)azetidin-1-yl)carbonyl)-7-fluoro-2H-1,4-benzoxazin-3(4H)-one], the inhibition at 10 µM stood at 103%. Turning to `Cc1ccc(OCC2CN(C(=O)c3cc4c(cc3F)OCC(=O)N4)C2)c(Cl)c1` [Example 117, 6-((3-((2-chloro-4-methylphenoxy)methyl)azetidin-1-yl)carbonyl)-7-fluoro-2H-1,4-benzoxazin-3(4H)-one], the inhibition at 10 µM turned out to be 102%. For `CC(C)(C)c1ccc(OCC2CN(C(=O)c3cc4c(cc3F)OCC(=O)N4)C2)c(Cl)c1` [Example 118, 6-((3-((4-tert-butyl-2-chlorophenoxy)methyl)azetidin-1-yl)carbonyl)-7-fluoro-2H-1,4-benzoxazin-3(4H)-one] the value was 99%; for `N#Cc1cc(Cl)ccc1OCC1CN(C(=O)c2cc3c(cc2F)OCC(=O)N3)C1` [Example 119, 5-chloro-2-((1-((7-fluoro-3-oxo-3,4-dihydro-2H-1,4-benzoxazin-6-yl)carbonyl)azetidin-3-yl)methoxy)benzonitrile], 102%; for `Cc1cc(F)ccc1OCC1CN(C(=O)c2cc3c(cc2F)OCC(=O)N3)C1` [Example 120, 7-fluoro-6-((3-((4-fluoro-2-methylphenoxy)methyl)azetidin-1-yl)carbonyl)-2H-1,4-benzoxazin-3(4H)-one], 101%. Take `COc1cc(F)ccc1OCC1CN(C(=O)c2cc3c(cc2F)OCC(=O)N3)C1` [Example 121, 7-fluoro-6-((3-((4-fluoro-2-methoxyphenoxy)methyl)azetidin-1-yl)carbonyl)-2H-1,4-benzoxazin-3(4H)-one]: the inhibition at 10 µM is 99%.

In the case of `O=C1COc2cc(F)c(C(=O)N3CC(COc4c(Cl)cccc4Cl)C3)cc2N1` [Example 122, 6-((3-((2,6-dichlorophenoxy)methyl)azetidin-1-yl)carbonyl)-7-fluoro-2H-1,4-benzoxazin-3(4H)-one], the inhibition at 10 µM amounted to 102%. For `O=C1COc2cc(F)c(C(=O)N3CC(COc4cccc(Cl)c4Cl)C3)cc2N1` [Example 123, 6-((3-((2,3-dichlorophenoxy)methyl)azetidin-1-yl)carbonyl)-7-fluoro-2H-1,4-benzoxazin-3(4H)-one] the value was 102%; for `O=C1COc2cc(F)c(C(=O)N3CC(COc4ccc(Cl)c(Cl)c4)C3)cc2N1` [Example 124, 6-((3-((3,4-dichlorophenoxy)methyl)azetidin-1-yl)carbonyl)-7-fluoro-2H-1,4-benzoxazin-3(4H)-one], 100%; for `O=C1COc2cc(F)c(C(=O)N3CC(COc4cc(Cl)ccc4Cl)C3)cc2N1` [Example 125, 6-((3-((2,5-dichlorophenoxy)methyl)azetidin-1-yl)carbonyl)-7-fluoro-2H-1,4-benzoxazin-3(4H)-one], 98%. For `O=C1COc2cc(F)c(C(=O)N3CC(COc4ccc(Cl)cc4F)C3)cc2N1` [Example 126, 6-((3-((4-chloro-2-fluorophenoxy)methyl)azetidin-1-yl)carbonyl)-7-fluoro-2H-1,4-benzoxazin-3(4H)-one] the value was 102%; for `O=C1COc2cc(F)c(C(=O)N3CC(COc4cc(Cl)cc(Cl)c4)C3)cc2N1` [Example 127, 6-((3-((3,5-dichlorophenoxy)methyl)azetidin-1-yl)carbonyl)-7-fluoro-2H-1,4-benzoxazin-3(4H)-one], 99%; for `O=C1COc2cc(F)c(C(=O)N3CC(COc4ccc(Oc5ccccc5)cc4)C3)cc2N1` [Example 128, 7-fluoro-6-((3-((4-phenoxyphenoxy)methyl)azetidin-1-yl)carbonyl)-2H-1,4-benzoxazin-3(4H)-one], 93%. Next, `O=C1COc2cc(F)c(C(=O)N3CC(COc4cccc(Oc5ccccc5)c4)C3)cc2N1` [Example 129, 7-fluoro-6-((3-((3-phenoxyphenoxy)methyl)azetidin-1-yl)carbonyl)-2H-1,4-benzoxazin-3(4H)-one]: 99%. In the case of `O=C1COc2cc(F)c(C(=O)N3CC(COc4ccc(Cl)c(F)c4)C3)cc2N1` [Example 130, 6-((3-((4-chloro-3-fluorophenoxy)methyl)azetidin-1-yl)carbonyl)-7-fluoro-2H-1,4-benzoxazin-3(4H)-one], the inhibition at 10 µM amounted to 103%. For `O=C1COc2cc(F)c(C(=O)N3CC(COc4ccc(F)c(Cl)c4)C3)cc2N1` [Example 131, 6-((3-((3-chloro-4-fluorophenoxy)methyl)azetidin-1-yl)carbonyl)-7-fluoro-2H-1,4-benzoxazin-3(4H)-one] the value was 101%.

Values taken from US10106556B2, “Heterocyclic compound” (TAKEDA PHARMACEUTICAL COMPANY LIMITED, priority 2015, dated 2018).
